Earlier results on 1 substance are cited in patent publication US20100317640A1, “ANTIMICROBIAL ZINC PYRITHIONE COMPOSITION AND METHOD” (MICROBAN PRODUCTS COMPANY, priority 2009, published 2010).

For the data set the following is noted: neutral pH.

For zinc pyrithione, the solubility in water is given as 8 ppm.
